The target of one series is T1, human mGlu5a receptor (Homo sapiens, UniProt P41594).
T1 construct: expressed in transfected cells; host or cells: HEK-293 (monoclonal, stably transfected)
Briefly: Intracellular Ca2+ mobilization assay (mGlu5 PAM). To be noted: HEK-293 cells expressing human mGlu5a; L-glutamate at EC20. Format: cell-based. The procedure: A monoclonal HEK-293 cell line stably transfected with a cDNA encoding for the human mGlu5a receptor was generated; for the work with mGlu5 Positive Allosteric Modulators (PAMs), a cell line with low receptor expression levels and low constitutive receptor activity was selected to allow the differentiation of agonistic versus PAM activity. Cells were cultured according to standard protocols (Freshney, 2000) in Dulbecco's Modified Eagle Medium with high glucose supplemented with 1 mM glutamine, 10% (vol/vol) heat-inactivated bovine calf serum, Penicillin/Streptomycin, 50 μg/ml hygromycin and 15 μg/ml blasticidin (all cell culture reagents and antibiotics from Invitrogen, Basel, Switzerland).
About 24 hrs before an experiment, 5×10^4 cells/well were seeded in poly-D-lysine coated, black/clear-bottomed 96-well plates. The cells were loaded with 2.5 μM Fluo-4AM in loading buffer (1×HBSS, 20 mM HEPES) for 1 hr at 37° C. and washed five times with loading buffer. The cells were transferred into a Functional Drug Screening System 7000 (Hamamatsu, Paris, France), and 11 half logarithmic serial dilutions of test compound at 37° C. were added and the cells were incubated for 10-30 min. with on-line recording of fluorescence. Following this pre-incubation step, the agonist L-glutamate was added to the cells at a concentration corresponding to EC20 (typically around 80 μM) with on-line recording of fluorescence; in order to account for day-to-day variations in the responsiveness of cells, the EC20 of glutamate was determined immediately ahead of each experiment by recording of a full dose-response curve of glutamate.
Responses were measured as peak increase in fluorescence minus basal (i.e. fluorescence without addition of L-glutamate), normalized to the maximal stimulatory effect obtained with saturating concentrations of L-glutamate. Graphs were plotted with the % maximal stimulatory using XLfit, a curve fitting program that iteratively plots the data using Levenburg Marquardt algorithm. The single site competition analysis equation used was y=A+((B−A)/(1+((x/C)D))), where y is the % maximal stimulatory effect, A is the minimum y, B is the maximum y, C is the EC50, x is the log 10 of the concentration of the competing compound and D is the slope of the curve (the Hill Coefficient). From these curves the EC50 (concentration at which half maximal stimulation was achieved), the Hill coefficient as well as the maximal response in % of the maximal stimulatory effect obtained with saturating concentrations of L-glutamate were calculated.
A depression of the signal observed after addition of the EC20 concentration of L-glutamate was indicative of an inhibitory activity of the test compound.
Background: A change in cytosolic calcium serves as a functional read-out for many receptors and channels.

Series [1] can be described thus: Spontaneous Glutathione (GSH) Addition Assay. The arrangement: key: Samples for which the mass of a covalent adduct was clearly detected (M+307) are indicated as FLAG (positive); Compounds for which no adduct was detected are designated NO FLAG (negative). To be noted: 10 μM test substance, 5 mM GSH, pH 7.4 phosphate buffer, 24 hours, room temperature; adduct by MS. The procedure:
10 μM of test substance dissolved in pH 7.4 phosphate buffer was incubated with 5 mM GSH (glutathione) for 24 hours at room temperature. The samples were then analyzed using a mass spectrometer to determine whether adducts between glutathione and the drug had been formed. Samples for which the mass of a covalent adduct was clearly detected (M+307) are indicated as FLAG (positive). Compounds for which no adduct was detected are designated NO FLAG (negative).

A short description of series [2]: Lyophilisation Solubility Assay (LYSA). The conditions noted are these: aqueous buffer, thermodynamic from solid, 0.05 M phosphate buffer pH 6.5. In kind it is physicochemical. How it is done: The procedure of this automatic high throughput assay can be separated into two steps. First, DMSO stock solutions of test compounds are diluted in order to prepare four point calibration curves. The peak area at an optimal wavelength for each test compound is determined automatically by Ultra Fast Liquid Chromatography. The extraction of peak areas and retention times from the raw data is performed automatically. Using four concentrations and the related peak areas, slope and intercept of the calibration line is calculated. The correlation coefficient of the obtained regression line should be greater than 0.99. In the second phase, the sample solutions are prepared in duplicate from the DMSO stock solutions. The DMSO was removed using an evaporator. After evaporation of the DMSO, the solid drugs were solved in 0.05 M phosphate buffer (pH 6.5), stirred for one hour and afterwards shaken for two hours. After standing overnight (about 20 hours), the solutions are filtered using a microtiter filter plate. The filtrate and its 1/10 dilutions are then analyzed automatically by High Performance Liquid Chromatography (HPLC). The peak areas and retention times of the samples were extracted at the same wavelength used for the calibration.
The solubility is calculated using the following equation: S=(A−b)/a(×10 for the sample diluted 1/10)
Where S is the solubility in μg/mL; A is the peak area of the sample; a is the slope and b is the intercept of the calibration curve.

A short description of series [3]: Solubility by 24 h equilibration in phosphate buffer, manual conventional HPLC (reference compound 106). Format: physicochemical. The conditions noted are these: aqueous buffer, thermodynamic from solid, equilibrated 24 h in 0.05 M phosphate buffer pH 6.5. How it is done: In the case of reference compound 106, the compound was equilibrated for 24 h in 0.05 M phosphate buffer (pH 6.5) using a procedure identical to that performed with the LYSA assay. The amount of solute present was then directly determined using manual conventional HPLC analytics.

The structures appear in SMILES notation. Converted amounts (≈) assume the structure as drawn.

T1 sequence (P41594 21-1180 isoform P41594-2 limits assumed): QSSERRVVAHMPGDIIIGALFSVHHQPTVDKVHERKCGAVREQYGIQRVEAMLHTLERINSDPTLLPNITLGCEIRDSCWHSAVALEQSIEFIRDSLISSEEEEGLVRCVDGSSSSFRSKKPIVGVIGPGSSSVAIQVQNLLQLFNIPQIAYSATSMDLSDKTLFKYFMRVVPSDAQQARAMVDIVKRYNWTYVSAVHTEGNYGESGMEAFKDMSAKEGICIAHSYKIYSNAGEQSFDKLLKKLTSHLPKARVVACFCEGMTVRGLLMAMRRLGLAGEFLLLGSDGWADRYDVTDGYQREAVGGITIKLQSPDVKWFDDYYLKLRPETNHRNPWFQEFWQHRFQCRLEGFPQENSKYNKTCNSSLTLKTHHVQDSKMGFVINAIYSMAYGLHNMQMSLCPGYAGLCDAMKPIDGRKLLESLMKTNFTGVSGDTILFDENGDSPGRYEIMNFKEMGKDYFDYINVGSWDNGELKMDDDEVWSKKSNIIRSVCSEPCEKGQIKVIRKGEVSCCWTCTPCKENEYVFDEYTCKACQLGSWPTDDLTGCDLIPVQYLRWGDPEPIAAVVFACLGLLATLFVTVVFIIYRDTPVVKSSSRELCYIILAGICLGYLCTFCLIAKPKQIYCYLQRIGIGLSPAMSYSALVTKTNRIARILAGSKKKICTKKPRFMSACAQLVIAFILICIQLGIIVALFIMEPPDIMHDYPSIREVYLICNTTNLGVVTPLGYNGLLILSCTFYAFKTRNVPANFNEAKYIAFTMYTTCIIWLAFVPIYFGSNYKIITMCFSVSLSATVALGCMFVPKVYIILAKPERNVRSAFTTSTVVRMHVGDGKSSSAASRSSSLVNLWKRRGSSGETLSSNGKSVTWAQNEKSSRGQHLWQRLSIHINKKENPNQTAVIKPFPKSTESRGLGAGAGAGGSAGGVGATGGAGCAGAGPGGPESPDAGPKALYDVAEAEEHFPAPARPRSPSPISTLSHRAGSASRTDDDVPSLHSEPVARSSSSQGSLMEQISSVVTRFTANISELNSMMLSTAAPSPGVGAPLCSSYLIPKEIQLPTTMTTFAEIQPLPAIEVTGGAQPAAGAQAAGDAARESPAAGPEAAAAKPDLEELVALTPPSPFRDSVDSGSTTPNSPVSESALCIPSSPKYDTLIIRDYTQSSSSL

As a reminder, the EC50 is the concentration that produces a half-maximal response. One may read the solubility as how much of the substance goes into solution per volume. As to `CN1C(=O)N(c2ccc(C#Cc3cccc(F)c3)nn2)[C@@H]2CCC[C@@H]21` (racemic) [Ref. 1 Ex. 174, reference compound], the EC50 at human mGlu5a receptor worked out at 11.9 nM. Also, in series [1], the GSH assay result is “FLAG”. Besides, the solubility in series [2] was less than 1 µg/mL.
On to `CCN1C(=O)N(c2ncc(C#Cc3ccccc3)cn2)[C@@H]2CCC[C@@H]21` [Example 1, (−)-(3aR,6aS)-1-Ethyl-3-(5-phenylethynyl-pyrimidin-2-yl)-hexahydro-cyclopentaimidazol-2-one], for which the EC50 at human mGlu5a receptor was found to be 9.1 nM. In addition, the GSH assay entry in series [1] is “NO FLAG”. In series [2], this compound returned a solubility of 8 µg/mL (≈ 24.1 µM).
For `CCN1C(=O)N(c2ncc(C#Cc3cccc(F)c3)cn2)[C@@H]2CCC[C@@H]21` [Example 2], at human mGlu5a receptor, the EC50 turned out to be 10.6 nM. Besides, in series [1], the GSH assay result is given as “NO FLAG”. In addition, the solubility in series [2] stood at 7 µg/mL (≈ 20 µM).
At human mGlu5a receptor, `CCN1C(=O)N(c2ncc(C#Cc3ccc(F)cc3)cn2)[C@@H]2CCC[C@@H]21` [Example 3] came in with an EC50 of 11.5 nM. Moreover, the GSH assay entry in series [1] is reported as “NO FLAG”. Further, in series [2], the solubility worked out at 4 µg/mL (≈ 11.4 µM).
For `CCN1C(=O)N(c2ncc(C#Cc3cc(F)ccc3F)cn2)[C@@H]2CCC[C@@H]21` [Example 4], in that order: 10 nM, “NO FLAG” and 16 µg/mL (≈ 43.4 µM).
For `COCCN1C(=O)N(c2ncc(C#Cc3ccccc3)cn2)[C@@H]2CCC[C@@H]21` [Example 5, (−)-(3aR,6aS)-1-(2-Methoxy-ethyl)-3-(5-phenylethynyl-pyrimidin-2-yl)-hexahydro-cyclopentaimidazol-2-one] the same measures were 12.5 nM, “NO FLAG” and 171 µg/mL (≈ 472 µM).
As for `COCCN1C(=O)N(c2ncc(C#Cc3cccc(F)c3)cn2)[C@@H]2CCC[C@@H]21` [Example 6], a half-maximal response on human mGlu5a receptor (EC50) required 24.5 nM. Moreover, the GSH assay result in series [1] is reported as “NO FLAG”. Moreover, in series [2], the solubility was found to be 114 µg/mL (≈ 300 µM).
For `COCCN1C(=O)N(c2ncc(C#Cc3ccc(F)cc3)cn2)[C@@H]2CCC[C@@H]21` [Example 7], in that order: 26.8 nM, “NO FLAG” and 43 µg/mL (≈ 113 µM).
For `COCCN1C(=O)N(c2ncc(C#Cc3cc(F)ccc3F)cn2)[C@@H]2CCC[C@@H]21` [Example 8], in that order: 15.7 nM, “NO FLAG” and 75 µg/mL (≈ 188 µM).
Compound `COCCCN1C(=O)N(c2ncc(C#Cc3ccccc3)cn2)[C@@H]2CCC[C@@H]21` [Example 9, (−)-(3aR,6aS)-1-(3-Methoxy-propyl)-3-(5-phenylethynyl-pyrimidin-2-yl)-hexahydro-cyclopentaimidazol-2-one] displayed a half-maximal effective concentration (EC50) on human mGlu5a receptor of 30.9 nM. Also, the GSH assay result in series [1] is listed as “NO FLAG”. The solubility in series [2] was determined as 153 µg/mL (≈ 406 µM).
For `COCCCN1C(=O)N(c2ncc(C#Cc3cccc(F)c3)cn2)[C@@H]2CCC[C@@H]21` [Example 10], in that order: 31.6 nM, “NO FLAG” and 115 µg/mL (≈ 292 µM).
For `COCCCN1C(=O)N(c2ncc(C#Cc3ccc(F)cc3)cn2)[C@@H]2CCC[C@@H]21` [Example 11], in that order: 35 nM, “NO FLAG” and 56 µg/mL (≈ 142 µM).
The compound `CN1C(=O)N(c2ccc(C#Cc3ccccc3)cn2)[C@@H]2CCC[C@@H]21` [Ref. 1 Ex. 106, reference compound] displayed a solubility at 24 h in series [3] of 0.011 µg/mL (≈ 0.0347 µM). For the same compound, a half-maximal response on human mGlu5a receptor (EC50) required 8 nM.
Turning to `CN1C(=O)N(c2ccc(C#Cc3ccccc3)nn2)[C@@H]2CCC[C@@H]21` [Ref. 1 Ex. 170, reference compound], on human mGlu5a receptor, the EC50 was determined as 8.1 nM. In addition, the GSH assay entry in series [1] is given as “FLAG”. The solubility in series [2] stood at 2 µg/mL (≈ 6.28 µM).

For the origin of these results see patent US9199971B2, “Arylethynyl pyrimidines” (Hoffmann-La Roche Inc., priority 2012, dated 2015).
